Our source for the IC50, Effect and EC50 values is patent publication US20030187261A1, “Purine derivatives, process for their preparation and use thereof” (priority 2000, published 2003).

One assay concerns the target T1, CDC2 (Homo sapiens, UniProt P06493).
T1 construct: made in house; host or cells: Sf9 insect cells, baculovirus co-infection
Put plainly: p34cdc2 (CDC2) kinase inhibition assay, histone H1 substrate. The format is biochemical.

The next assay addresses IκB-α. As to the kind of experiment: IκB-α kinase-inhibitory activity. It is filed as biochemical. The source says: Modification of 2,6,9-trisubstituted purines by a catechol-like substituent at R6 leads to an increase in cdk inhibitory activity of the tested compounds.
The next assay deals with β-adrenergic receptors. As to the kind of experiment: isoproterenol-induced intracellular cAMP synthesis in rat C6 glioma. It is filed as cell-based. Conditions: cAMP induced by 5 μM (−) isoproterenol, 30 min; for Effect: rat C6 glioma. The method, then:
Rat C6 glioma (ATCC N° CCL107) was cultivated in monolayer in serum-free chemically defined medium containing Ham's F10/minimal essential medium (1:1 vol/vol), 2 mM L-glutamine, 1% (vol/vol) minimal essential medium vitamins (100×), 1% (vol/vol) minimal essential medium nonessential amino acids (100×), 100 U/ml penicillin, 100 μg/ml streptomycin and 30 nM sodium selenite. Incubation was at 37° C. in a humidified atmosphere. Assays were performed in the logaritmic growth phase at a density of 2.5×10^5 cells/cm^2. Intracellular cAMP synthesis was induced by addition of 5 μM (−) isoproterenol. After 30 min incubation at 37° C. the medium was removed and the cellular amount of cAMP determined using the cAMP-enzyme immunoassay kit of Amersham. The IC50 is determined from a dose-response curve in duplicate. The effect of seven purine-analogs was measured after simultaneous addition with isoproterenol.
As P2Y1-like and A2 purinergic receptors, negatively and positively coupled to adenylate cyclase respectively, are present on rat C6 glioma the modulation of the synthesis of cAMP may be due to inhibition of the activation of β-adrenergic receptors by isoproterenol or to activation of purinergic receptors.

The subject of the next assay is normal human lymphocytes. Put plainly: concanavalin A induced lymphocyte proliferation, [3H]-TdR incorporation. The format is cell-based. Conditions: 72 hours, read-out: ED50 (the source's name). The method, then: Human heparinized peripheral blood was obtained from healthy volunteers by cubital vein punction. The blood was diluted in PBS (1:3) and mononuclear cells were separated by centrifugation in Ficoll-Hypaque density gradient (Pharmacia, 1.077 g/ml) at 2200 rpm for 30 minutes. Following centrifugation, lymphocytes were washed in PBS and resuspended in cell culture medium (RMPI 1640, 2 mM glutamine, 100 U/ml penicillin, 100 μg/ml streptomycin, 10% fetal calf serum and sodium bicarbonate).
The cells were diluted at target density of 1100000 cells/ml and were added by pipette (180 μl) into 96/well microtiter plates. Four-fold dilutions of the intended test concentration were added at time zero in 20 μl aliquots to the microtiter plate wells. Usually, test compound was evaluated at six 4-fold dilutions. In routine testing, the highest well concentration was 266.7 μM. All drug concentrations were examined in duplicates. All wells with exception of unstimulated controls were activated with 50 μl of concanavalin A (25 μg/ml). Incubations of cells with test compounds lasted for 72 hours at 37° C., in 5% CO2 atmosphere and 100% humidity. At the end of incubation period, the cells were assayed by using the [^3H]-TdR:
Cell cultures were incubated with […] (20 μl of stock solution 500 μCi/ml) per well for 6 hours at 37° C. and 5% CO2. The automated cell harvester was used to lyse cells in water and adsorb the DNA onto glass-fiber filters in the format of microtiter plate. The DNA incorporated [^3H]-TdR was retained on the filter while unincorporated material passes through. The filters were dried at room temperature overnight, sealed into a sample bag with 10-12 ml of scintillant. The amount of [^3H]-TdR present in each filter (in cpm) was determined by scintillation counting in a Betaplate liquid scintillation counter. The effective dose of immunosuppressant (ED) was calculated using the following equation: ED=(cpmdrug exposed well/mean cpmcontrol wells)×100%. The EDs50 value, the drug concentration inhibiting proliferation of 50% of lymphocytes, was calculated from the obtained dose response curves.
To evaluate immunosuppressive activity of substituted adenines, their ability to inhibit polyclonal mitogen induced proliferation of normal human lymphocytes was analyzed (Table 8). […] Effective immunosuppressive dose of new derivatives under in vitro conditions was close to 1-20 μM.

Assay [1] relates to T-lymphoblastic leukemia cell line CEM. As to the kind of experiment: MTT cytotoxicity assay, CEM. The format is cell-based, human. Conditions: 72 hours (TCS50 in the method). The source says: (§1) One of the parameters used as the basis for colorimetric assays is the metabolic activity of viable cells. For example, a microtiter assay, which uses the tetrazolium salt MTT, is now widely used to quantitate cell proliferation and cytotoxicity. For instance, this assay is used in drug screening programs and in chemosensitivity testing. Because only metabolically active cells cleave tetrazolium salts, these assays detect viable cells exclusively. In the case of MTT assay, yellow soluble tetrazolium salt is reduced to coloured water-insoluble formazan salt. After it is solubilized, the formazan formed can easily and rapidly be quantified in a conventional ELISA plate reader at 570 nm (maximum absorbance). The quantity of reduced formazan corresponds to number of vital cells in the culture. Human T-lymphoblastic leukemia cell line CEM; promyelocytic HL-60 and monocytic U937 leukemias; breast carcinoma cell lines MCF-7, BT549, MDA-MB-231; glioblastoma U87MG cells; cervical carcinoma cells HELA; sarcoma cells U20S and Saos2; hepatocellular carcinoma HepG2; mouse immortalized bone marrow macrophages B2.4 and B10A.4; P388D1 and L1210 leukemia; B16 and B16F10 melanomas were used for routine screening of the compounds according to the invention. The cells were maintained in Nunc/Corning 80 cm^2 plastic tissue culture flasks and cultured in cell culture medium (DMEM with 5 g/l glucose, 2 mM glutamine, 100 U/ml penicillin, 100 μg/ml streptomycin, 10% fetal calf serum and sodium bicarbonate).
(§2) The cell suspensions that were prepared and diluted according to the particular cell type and the, expected target cell density (2500-30000 cells per well based on cell growth characteristics) were added by pipette (80 μl) into 96-well microtiter plates. Inoculates were allowed a pre-incubation period of 24 hours at 37° C. and 5% CO2 for stabilisation. Four-fold dilutions of the intended test concentration were added at time zero in 20 μl aliquots to the microtiter plate wells. Usually, test compound was evaluated at six 4-fold dilutions. In routine testing, the highest well concentration was 266.7 μM, but it can be the matter of change dependent on the agent. All drug concentrations were examined in duplicates. Incubations of cells with the test compounds lasted for 72 hours at 37° C., in 5% CO2 atmosphere and 100% humidity. At the end of incubation period, the cells were assayed by using the MTT. Ten microliters of the MTT stock solution were pipetted into each well and incubated further for 1-4 hours. After this incubation period, formazan was solubilized by addition of 100 μl/well of 10% SDS in water (pH=5.5) followed by further incubation at 37° C. overnight. The optical density (OD) was measured at 540 nm with the Labsystem iEMS Reader MF (UK). The tumour cell survival (TCS) was calculated using the following equation: TCS=(ODdrug exposed well/mean ODcontrol wells)×100%. The TCS50 value, the drug concentration lethal to 50% of the tumour cells, was calculated from the obtained dose response curves.
(§3) The cytoxicity of novel compounds was tested on panel of cell lines of different histogenetic and species origin (Table 7). Equal activities were found in all tumour cell lines tested. […] Importantly, this observation distinguishes the purine derivatives of the invention from flavopiridol and related compounds, as their biological activity is dependent on p53 status.
Background: Tetrazolium assays rely on reduction of a dye to a coloured formazan, in cell work by metabolically active cells.

The next assay concerns B16 melanoma. Put plainly: MTT cytotoxicity assay, B16. The following applies: 72 hours (TCS50 in the method). It is filed as cell-based, mouse.
Source text: as §1, §2, §3

Molecules are shown by their SMILES.

T1 sequence (P06493 whole entry, species assumed): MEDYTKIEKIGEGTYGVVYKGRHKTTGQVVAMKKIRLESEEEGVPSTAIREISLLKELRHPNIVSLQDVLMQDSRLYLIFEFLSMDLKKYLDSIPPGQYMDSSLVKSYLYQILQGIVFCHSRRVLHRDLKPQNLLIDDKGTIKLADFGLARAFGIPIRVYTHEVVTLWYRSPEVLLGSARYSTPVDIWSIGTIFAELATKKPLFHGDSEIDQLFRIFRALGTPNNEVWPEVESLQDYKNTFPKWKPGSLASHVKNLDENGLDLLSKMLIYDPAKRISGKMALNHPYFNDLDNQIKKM
T1 sequence (P14635 whole entry partner, species assumed): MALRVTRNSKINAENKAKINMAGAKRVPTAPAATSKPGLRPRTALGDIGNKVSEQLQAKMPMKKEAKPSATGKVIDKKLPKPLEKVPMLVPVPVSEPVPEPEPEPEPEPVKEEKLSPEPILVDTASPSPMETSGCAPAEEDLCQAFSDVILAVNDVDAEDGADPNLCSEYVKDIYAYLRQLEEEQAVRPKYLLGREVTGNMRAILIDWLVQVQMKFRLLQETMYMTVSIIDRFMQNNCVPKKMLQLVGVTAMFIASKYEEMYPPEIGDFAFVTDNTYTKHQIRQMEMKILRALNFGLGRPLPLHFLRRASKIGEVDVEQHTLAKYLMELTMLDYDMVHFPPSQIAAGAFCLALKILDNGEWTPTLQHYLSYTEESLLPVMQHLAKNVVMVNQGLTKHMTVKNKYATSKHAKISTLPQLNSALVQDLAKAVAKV
Procedure for CDC2: Cyclin-dependent kinases (p34^cdc2, p33^cdk2, p33^cdk4 and cyclins (cyclin B, E and DI) are produced in Sf9 insect cells coinfected with appropriate baculoviral constructs. The cells are harvested 68-72 hrs post infection in lysis buffer for 30 min on ice and the soluble fraction is recovered by centrifugation at 14.000 g for 10 min. The protein extract is stored at −80° C.
To carry out experiments on kinetics under linear conditions, the final point test system for kinase activity measurement is used. The kinase is added to the reaction mixture in such a way that linear activity is obtained with respect to the concentration of enzyme and with respect to time.
Inhibition of p33^cdk4 kinase is determined with Rb-GST (0.2 mg/ml) as the substrate. Kinase activity is determined at 30° C. in kinase buffer.
Tested compounds are usually dissolved to 100 mM solutions in DMSO, the final concentration of DMSO in reaction mixture never exceeds 1%. The controls contain suitable dilutions of DMSO. After 10 min, the addition of 3×SDS sample buffer stops the incubations. […] The measurement of kinase activity is done using digital image analysis. The kinase activity is expressed as a percentage of maximum activity, the apparent inhibition constants are determined by graphic analysis. Kinase buffer: 50 mM Hepes pH 7.4, 10 mM MgCl21 5 mM EGTA, 10 mM 2-glycerolphosphate,

With `CC(C)[C@H](CO)Nc1nc(NCc2ccc(O)c(O)c2)c2ncn(C(C)C)c2n1`, the IC50 against CDC2 (Table 3, unit nM) was 250 nM; on IκB-α (Table 3, unit nM), 320 nM.
With `CC[C@@H](CO)Nc1nc(N[C@@H](CO)c2ccccc2)c2ncn(C(C)C)c2n1` [P38], the Effect result with β-adrenergic receptors is “inactive”.
`CC(C)C(CO)Nc1nc(NCc2ccccc2)c2ncn(C(C)C)c2n1` (stereo not shown) [P30]: the Effect result with β-adrenergic receptors is “inhibition”. Further, the IC50 at β-adrenergic receptors (read-out: I50) came to 45 ± 5 µM.
For the compound `CC(C)[C@H](CO)Nc1nc(NC(CO)c2ccccc2)c2ncn(C(C)C)c2n1` (stereo partly shown), the IC50 was found to be 540 nM against CDC2 (Table 3, unit nM) and 670 nM against IκB-α (Table 3, unit nM).
As for `CN(CCc1ccc(O)c(O)c1)c1nc(NCCO)nc2c1ncn2C`, the IC50 at CDC2 (Table 3) was found to be 10200 nM; against IκB-α (Table 3), 25400 nM.
With `CC(O)CNc1nc(NC(CO)c2ccccc2)c2ncn(C(C)C)c2n1` (stereo not shown) [P39], in the assay with β-adrenergic receptors, the Effect entry was “inactive”.
As to `CC(C)n1cnc2c(NC(CO)c3ccccc3)nc(NCCO)nc21` (racemic), the IC50 on CDC2 (Table 3) turned out to be 1400 nM; in assay [1], 18 µM; in the assay on B16 melanoma, 19 µM. In addition, the EC50 in the assay with normal human lymphocytes came out at 38 µM.
Consider `CC(C)[C@H](CO)Nc1nc(N(C)CCc2ccc(O)c(O)c2)c2ncn(C(C)C)c2n1`, for which the IC50 on CDC2 (Table 3, unit nM) turned out to be 390 nM; in assay [1], 8 µM; with B16 melanoma, 9 µM; against IκB-α (Table 3, unit nM), 460 nM. In the assay on normal human lymphocytes, the EC50 was found to be 0.54 µM.
Turning to `Cn1cnc2c(NCc3ccc(O)c(O)c3)nc(NCCO)nc21`, the values for the IC50 at CDC2 (Table 3) and against IκB-α (Table 3) were 4200 nM and 10800 nM, respectively.
As to `CC[C@H](CO)Nc1nc(NCc2ccc(O)c(O)c2)c2ncn(C(C)C)c2n1`, the IC50 in assay [1] was found to be 8 µM; in the assay with B16 melanoma, 9 µM; against IκB-α (Table 3), 1250 nM.
On to `Cn1cnc2c(NC(CO)c3ccccc3)nc(NCCO)nc21` (racemic), for which the IC50 against CDC2 (Table 3) was determined as 5600 nM; against IκB-α (Table 3), 13700 nM.
Turning to `CC[C@H](CO)Nc1nc(NC(CO)c2ccccc2)c2ncn(C(C)C)c2n1` (stereo partly shown), the EC50 in the assay on normal human lymphocytes was 12 µM. Besides, the IC50 in assay [1] was found to be 15 µM; in the assay with B16 melanoma it was 13.5 µM; at IκB-α (Table 3), 2150 nM.
Turning to `CC(C)n1cnc2c(N(C)CCc3ccc(O)c(O)c3)nc(NC[C@H](C)O)nc21`, the EC50 with normal human lymphocytes was determined as 8 µM. Also, the values for the IC50 (in assay [1]; with B16 melanoma) were 43 µM and 40 µM, respectively.
As to `CCCCCCNc1nc(N(C)CCc2ccc(O)c(O)c2)c2ncn(C(C)C)c2n1`, the figures for the IC50 (on CDC2 (Table 3); in assay [1]; with B16 melanoma) were 2600 nM, 33 µM and 32 µM, respectively. In addition, the EC50 with normal human lymphocytes came to 15 µM.
